From patent publication US11229398B2, “Electrode assemblies for neurostimulation treatment” (Cardionomic, Inc., priority 2016, dated 2022) come the findings set out here.

The experiment deals with normal, non-HF ovine model. Description: Change in contractility (max(dP/dt) from pressure measurements as surrogate) and beat-by-beat correlation of right and left ventricle contractility after an injection. Type of experiment: in vivo. Particulars: for Contractility % Increase: after the injection, max(dP/dt) used as surrogate for contractility. An excerpt: The correlation was a heartbeat-by-heartbeat analysis. Pressure measurements, taken by a Millar catheter comprising a MEMS pressure sensor, in units of max(dP/dt) was used as a surrogate for contractility.
The first change, a dobutamine injection, provided a very high contractility increase greater than 500%. The average correlation between right ventricle contractility and left ventricle contractility was very good at 0.91, where 1.00 is a perfect correlation. Accordingly, if a subject is given a dobutamine injection, measuring changes to right ventricle contractility can provide accurate information about changes to left ventricle contractility. The first change was repeated three times.
The second change, calcium injection at 5 mL, provided a contractility increase of about 20%. […] The average correlation between right ventricle contractility and left ventricle contractility using a Millar (MEMS) sensor on a catheter was very good at 0.91. The average correlation between right ventricle contractility and left ventricle contractility using a fluid-filled lumen of a Swan-Ganz catheter in communication with an external pressure sensor was also very good at 0.87. Accordingly, under certain circumstances such as measurement of an animal (normal, non-HF ovine model) model, if a subject is given a calcium injection, measuring changes to right ventricle contractility with a MEMS sensor or a fluid filled lumen can provide accurate information about changes to left ventricle contractility.
The fourth change, neurostimulation as described herein, provided a contractility increase of about 28%. The correlation between right ventricle contractility and left ventricle contractility was very good at 0.90. Accordingly, if a subject is given neurostimulation, measuring changes to right ventricle contractility can provide accurate information about changes to left ventricle contractility. […] Thereafter, the left ventricle contractility tapered off logarithmically or exponentially, but the right ventricle contractility decreased very slowly. These differences help to show why the correlation between left ventricle contractility and right ventricle contractility are poorly correlated for calcium injections. The fourth change was not repeated.

Setting [1] is: first several beats after the injection.

Consider calcium [Calcium Injection (5 mL)], for which the “Contractility % Increase” value is recorded as around 20%. In addition, for the setting “listed as calcium injection”, the “Contractility % Increase” value is on record as “about 20%”. Under setting [1], the left ventricle contractility entry was “increased dramatically” and the right ventricle contractility result is “only slightly increased”.
